Values joined by “and” are separate entries in the source; they are usually repeats but may differ in a detail not shown here. Equal values may be shown once. Inconclusive results and toxic doses are left out.
Test system: L1210 leukemia ip in BDF1 mice, survival T/C
Test: NCI In Vivo Anticancer Drug Screen. Data for tumor model L1210 Leukemia (intraperitoneal) in B6D2F1 (BDF1) mice
Conditions: endpoint: mean survival time, higher = longer survival
Outline: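 Each compound was tested against a transplantable tumor grown in mice. The endpoint was survival, with treated animals benchmarked against vehicle controls as a simple ratio.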

[1] = dose: 50.0 mg/kg/injection, schedule: Q01DX005 (ip), vehicle: saline
[2] = dose: 100.0 mg/kg/injection, schedule: Q01DX005 (ip), vehicle: saline
[3] = dose: 200.0 mg/kg/injection, schedule: Q01DX005 (ip), vehicle: saline
[4] = dose: 100.0 mg/kg/injection, schedule: Q01DX009 (ip), vehicle: Klucel (hydroxypropylcellulose) (HPC)
[5] = dose: 200.0 mg/kg/injection, schedule: Q01DX009 (ip), vehicle: Klucel (hydroxypropylcellulose) (HPC)
[6] = dose: 400.0 mg/kg/injection, schedule: Q01DX009 (ip), vehicle: Klucel (hydroxypropylcellulose) (HPC)
[7] = dose: 100.0 mg/kg/injection, schedule: Q04DX002 (ip), vehicle: saline with Tween-80
[8] = dose: 200.0 mg/kg/injection, schedule: Q04DX002 (ip), vehicle: saline with Tween-80
[9] = dose: 400.0 mg/kg/injection, schedule: Q04DX002 (ip), vehicle: saline with Tween-80
[10] = dose: 100.0 mg/kg/injection, schedule: Q01DX001 (ip), vehicle: other
[11] = dose: 200.0 mg/kg/injection, schedule: Q01DX001 (ip), vehicle: other
[12] = dose: 400.0 mg/kg/injection, schedule: Q01DX001 (ip), vehicle: other
[13] = dose: 100.0 mg/kg/injection, schedule: Q01DX009 (ip), vehicle: saline with Tween-80
[14] = dose: 200.0 mg/kg/injection, schedule: Q01DX009 (ip), vehicle: saline with Tween-80
[15] = dose: 100.0 mg/kg/injection, schedule: Q04DX003 (ip), vehicle: Klucel (hydroxypropylcellulose) (HPC)
[16] = dose: 200.0 mg/kg/injection, schedule: Q04DX003 (ip), vehicle: Klucel (hydroxypropylcellulose) (HPC)
[17] = dose: 400.0 mg/kg/injection, schedule: Q04DX003 (ip), vehicle: Klucel (hydroxypropylcellulose) (HPC)

For `CC(/C=N/Nc1nnc(N/N=C/C(C)=C/c2ccccc2)c2ccccc12)=C\c1ccccc1`, the T/C (dose: 50.0 mg/kg/injection, schedule: Q01DX001 (ip), vehicle: carboxymethylcellulose (CMC)) was 94 % of control, the T/C (dose: 100.0 mg/kg/injection, schedule: Q01DX001 (ip), vehicle: carboxymethylcellulose (CMC)) was 102 % of control and the T/C (dose: 200.0 mg/kg/injection, schedule: Q01DX001 (ip), vehicle: carboxymethylcellulose (CMC)) was 96 % of control. For the same molecule, the T/C (dose: 400.0 mg/kg/injection, schedule: Q01DX001 (ip), vehicle: carboxymethylcellulose (CMC)) was 112 % of control.

With `c1cc(-c2ncc[nH]2)ccn1` the T/C (dose: 100.0 mg/kg/injection, schedule: Q01DX001 (ip), vehicle: saline with Tween-80) was 100 % of control.

For `O=C1C(Br)C(Br)C(=O)N1c1ccccc1F` (stereo unspecified), the T/C (dose: 12.5 mg/kg/injection, schedule: Q01DX009 (ip), vehicle: other) was 96 % of control and the T/C (dose: 25.0 mg/kg/injection, schedule: Q01DX009 (ip), vehicle: other) was 92 % of control.

In the case of `O=CNc1nc(Cl)c2ncn(C3OC(COCc4ccccc4)C(OCc4ccccc4)C3OCc3ccccc3)c2n1` (stereo unspecified), the T/C (dose: 12.5 mg/kg/injection, schedule: Q01DX005 (ip), vehicle: saline) is reported as 104 % of control, the T/C (dose: 25.0 mg/kg/injection, schedule: Q01DX005 (ip), vehicle: saline) is reported as 98 % of control and the T/C [1] is reported as 102 % of control. The T/C [2] was 113 % of control and the T/C [3] was 106 % of control.

In the case of `O=C(CCOCc1ccccc1)N1Cc2cc3ccccc3nc2C1`, the T/C (dose: 10.0 mg/kg/injection, schedule: Q04DX003 (ip), vehicle: alcohol) is reported as 96 % of control, the T/C (dose: 20.0 mg/kg/injection, schedule: Q04DX003 (ip), vehicle: alcohol) is reported as 97 % of control and the T/C (dose: 40.0 mg/kg/injection, schedule: Q04DX003 (ip), vehicle: alcohol) is reported as 92 % of control. For the same molecule, the T/C (dose: 80.0 mg/kg/injection, schedule: Q04DX003 (ip), vehicle: alcohol) was 103 % of control and the T/C (dose: 160.0 mg/kg/injection, schedule: Q04DX003 (ip), vehicle: alcohol) was 92 % of control.

In the case of `COc1ccc(S(=O)(=O)F)cc1NC(=O)NCc1ccc([N+](=O)[O-])cc1`, the T/C [4] is reported as 103 % of control, the T/C [5] is reported as 110 % of control and the T/C [6] is reported as 108 % of control.

`O=C1c2cccc(Cl)c2C(=O)c2c(O)ccc(O)c21` was tested, and the T/C [7] was 87 % of control, the T/C [8] was 97 % of control and the T/C [9] was 97 % of control.

In the case of `CC(=O)OCC1CCC(NC(=O)N(CCF)N=O)CC1` (stereo unspecified), the T/C (dose: 9.0 mg/kg/injection, schedule: Q01DX001 (ip), vehicle: saline with Tween-80) is reported as 106 % of control, the T/C (dose: 13.0 mg/kg/injection, schedule: Q01DX001 (ip), vehicle: saline with Tween-80) is reported as 110 % of control and the T/C (dose: 20.0 mg/kg/injection, schedule: Q01DX001 (ip), vehicle: saline with Tween-80) is reported as 100 % of control. The T/C (dose: 45.0 mg/kg/injection, schedule: Q01DX001 (ip), vehicle: saline with Tween-80) was 353 % of control.

In the case of `O=C(O)c1cc(C(F)(F)F)nc2c1ccc1ccccc12`, the T/C (dose: 75.0 mg/kg/injection, schedule: Q01DX001 (ip), vehicle: saline) is reported as 98 % of control and the T/C (dose: 150.0 mg/kg/injection, schedule: Q01DX001 (ip), vehicle: saline) is reported as 98 % of control.

With `CCCN(CCC)[N+](=O)[O-]` the T/C [10] was 98 % of control, the T/C (dose: 100.0 mg/kg/injection, schedule: Q04DX003 (ip), vehicle: other) was 104 % of control and the T/C [11] was 93 % of control. For the same molecule, the T/C (dose: 200.0 mg/kg/injection, schedule: Q04DX003 (ip), vehicle: other) was 101 % of control, the T/C [12] was 97 % of control and the T/C (dose: 400.0 mg/kg/injection, schedule: Q04DX003 (ip), vehicle: other) was 98 % of control.

For `O=C(Nc1ccc(Cl)cc1C(F)(F)F)Oc1ccc(Cl)cc1Br`, the T/C (dose: 50.0 mg/kg/injection, schedule: Q01DX009 (ip), vehicle: saline with Tween-80) was 98 % of control, the T/C [13] was 103 % of control and the T/C [14] was 103 % of control.

For `CN1CNC(=O)NC1`, the T/C [4] was 113 % of control, the T/C [15] was 105 % of control and the T/C [5] was 105 % of control. For the same molecule, the T/C [16] was 105 % of control, the T/C [6] was 103 % of control and the T/C [17] was 111 % of control.

With `NOC(=O)c1cccc(Cl)c1` the T/C [7] was 94 % of control, the T/C [8] was 105 % of control and the T/C [9] was 96 % of control.

For `COc1cccc2c1C(=O)c1c(O)c3c(c(O)c1C2=O)C[C@@](O)(C(=O)COC(=O)Cc1ccccc1)C[C@@H]3OC1CC(N)C(O)C(C)O1` (stereo partly specified), the T/C (dose: 1.3 mg/kg/injection, schedule: Q01DX009 (ip), vehicle: saline) was 152 % of control, the T/C (dose: 2.0 mg/kg/injection, schedule: Q01DX009 (ip), vehicle: saline) was 167 % of control and the T/C (dose: 3.0 mg/kg/injection, schedule: Q01DX009 (ip), vehicle: saline) was 173 % of control. For the same molecule, the T/C (dose: 6.8 mg/kg/injection, schedule: Q01DX009 (ip), vehicle: saline with Tween-80) was 104 % of control.

For `CCN(CCCl)CCCNc1c2ccc(Cl)cc2nc2ccc(OC)nc12`, the T/C (dose: 1.5 mg/kg/injection, schedule: Q01DX009 (ip), vehicle: saline) was 119 % of control and the T/C (dose: 6.0 mg/kg/injection, schedule: Q01DX009 (ip), vehicle: saline) was 91 % of control.

With `O=C(O)C1CC2C3(Cl)C(Cl)=C(Cl)C(Cl)C2(CC1c1c2ccc(=O)c(O)c-2oc2c(O)c(O)ccc12)C3(Cl)Cl` (stereo unspecified) the T/C [15] was 96 % of control, the T/C [16] was 94 % of control and the T/C [17] was 96 % of control.

In the case of `O=C1CCCCCC2CC12` (stereo unspecified), the T/C (dose: 100.0 mg/kg/injection, schedule: Q04DX002 (sc), vehicle: olive oil, sesame oil, peanut oil) is reported as 105 % of control, the T/C (dose: 200.0 mg/kg/injection, schedule: Q04DX002 (sc), vehicle: olive oil, sesame oil, peanut oil) is reported as 112 % of control and the T/C (dose: 400.0 mg/kg/injection, schedule: Q04DX002 (sc), vehicle: olive oil, sesame oil, peanut oil) is reported as 109 % of control.

`c1ccc(CCSCCCSCCc2ccccn2)nc1` was tested, and the T/C (dose: 50.0 mg/kg/injection, schedule: Q04DX002 (ip), vehicle: saline) was 98 % of control, the T/C (dose: 100.0 mg/kg/injection, schedule: Q04DX002 (ip), vehicle: saline) was 98 % of control and the T/C (dose: 200.0 mg/kg/injection, schedule: Q04DX002 (ip), vehicle: saline) was 92 % of control. For the same molecule, the T/C (dose: 400.0 mg/kg/injection, schedule: Q04DX002 (ip), vehicle: saline) was 95 % of control.

For `O=C(NC(=S)Nc1ccc(F)cc1)c1ccccc1F`, the T/C (dose: 25.0 mg/kg/injection, schedule: Q01DX009 (ip), vehicle: gum acacia) was 104 % of control, the T/C (dose: 50.0 mg/kg/injection, schedule: Q01DX009 (ip), vehicle: gum acacia) was 107 % of control and the T/C (dose: 100.0 mg/kg/injection, schedule: Q01DX009 (ip), vehicle: gum acacia) was 96 % of control and 105 % of control.

`O=S1(=O)CC(Cl)C(I)C1` (stereo unspecified) was tested, and the T/C [13] was 102 % of control and the T/C [14] was 109 % of control.

For `O=c1cc(CCl)occ1O`, the T/C (dose: 50.0 mg/kg/injection, schedule: Q04DX003 (ip), vehicle: Klucel (hydroxypropylcellulose) (HPC)) was 95 % of control, the T/C [15] was 98 % of control and the T/C [16] was 97 % of control.

For `CN(C)N=Nc1ccccc1C(F)(F)F`, the T/C (dose: 50.0 mg/kg/injection, schedule: Q01DX009 (ip), vehicle: Klucel (hydroxypropylcellulose) (HPC)) was 109 % of control, the T/C [4] was 103 % of control and 107 % of control and the T/C [15] was 104 % of control. For the same molecule, the T/C [5] was 107 % of control and 108 % of control, the T/C [16] was 104 % of control and the T/C [6] was 111 % of control and 114 % of control. The T/C [17] was 109 % of control.

`CC(=O)NC1(C(=O)O)CSSC1` was tested, and the T/C [1] was 102 % of control, the T/C [2] was 100 % of control and the T/C [3] was 93 % of control. The T/C (dose: 400.0 mg/kg/injection, schedule: Q01DX005 (ip), vehicle: saline) was 102 % of control.

With `O=C(/C=N/O)Nc1ccccc1` the T/C [13] was 101 % of control, the T/C [14] was 101 % of control and the T/C (dose: 400.0 mg/kg/injection, schedule: Q01DX009 (ip), vehicle: saline with Tween-80) was 98 % of control.

In the case of `O=C(Nc1cccc(CO)c1)c1ccc(S(=O)(=O)F)cc1`, the T/C (dose: 100.0 mg/kg/injection, schedule: Q01DX001 (ip), vehicle: Klucel (hydroxypropylcellulose) (HPC)) is reported as 99 % of control, the T/C (dose: 200.0 mg/kg/injection, schedule: Q01DX001 (ip), vehicle: Klucel (hydroxypropylcellulose) (HPC)) is reported as 89 % of control and the T/C (dose: 400.0 mg/kg/injection, schedule: Q01DX001 (ip), vehicle: Klucel (hydroxypropylcellulose) (HPC)) is reported as 94 % of control.

For `c1ccc2cc3nc4c(nc3cc2c1)[nH]c1ccccc14`, the T/C [10] was 87 % of control, the T/C [11] was 95 % of control and the T/C [12] was 95 % of control.

From PubChem BioAssay AID248 (DTP/NCI, 2004)
